{"source": "ChEMBL document CHEMBL3885881", "about": "“DrugMatrix”", "species_on_record": "Rattus norvegicus", "test": "DrugMatrix - Regimen: Daily Repeat", "assay_type": "toxicity, organism-based, Sprague-Dawley", "parameters": "regimen Daily Repeat, gender Male, age 6-8 weeks", "details": "in vivo, po, 200 mg/kg, route oral GAVAGE, dose level Low, vehicle .5 % CMC; for ABSOLUTE BASOPHIL / ABSOLUTE EOSINOPHIL / ABSOLUTE LYMPHOCYTE / ABSOLUTE MONOCYTE / ABSOLUTE SEGMENTED NEUTROPHIL / BASOPHIL / EOSINOPHIL / ERYTHROCYTE COUNT / HEMATOCRIT / HEMOGLOBIN / LEUKOCYTE COUNT / LYMPHOCYTE / MEAN CORPUSCULAR HEMOGLOBIN / MEAN CORPUSCULAR HEMOGLOBIN CONCENTRATION / MEAN CORPUSCULAR VOLUME / MONOCYTE / NEUTROPHIL / NUCLEATED RED BLOOD CELLS / PLATELET COUNT: tissue Blood; for ALANINE AMINOTRANSFERASE / ALBUMIN / ALKALINE PHOSPHATASE / ASPARTATE AMINOTRANSFERASE / BLOOD UREA NITROGEN / CARBON DIOXIDE / CHLORIDE / CHOLESTEROL / CREATINE PHOSPHOKINASE / CREATININE / GLUCOSE / LACTATE DEHYDROGENASE / LIPASE / PHOSPHORUS / POTASSIUM / SODIUM / TOTAL BILIRUBIN / TOTAL PROTEIN / URIC ACID: tissue Plasma"}
{"smiles": "NC(=O)c1ccccc1O", "note": "[SALICYLAMIDE]", "values": [{"measurement": "ABSOLUTE BASOPHIL", "setting": "72 h, time 3 day", "value": 0, "unit": "CELLS/uL"}, {"measurement": "ABSOLUTE EOSINOPHIL", "setting": "72 h, time 3 day", "value": 126.67, "unit": "CELLS/uL"}, {"measurement": "ABSOLUTE LYMPHOCYTE", "setting": "72 h, time 3 day", "value": 13749, "unit": "CELLS/uL"}, {"measurement": "ABSOLUTE MONOCYTE", "setting": "72 h, time 3 day", "value": 274.67, "unit": "CELLS/uL"}, {"measurement": "ABSOLUTE SEGMENTED NEUTROPHIL", "setting": "72 h, time 3 day", "value": 2049.67, "unit": "CELLS/uL"}, {"measurement": "BASOPHIL", "setting": "72 h, time 3 day", "value": 0, "unit": "%"}, {"measurement": "EOSINOPHIL", "setting": "72 h, time 3 day", "value": 0.67, "unit": "%"}, {"measurement": "ERYTHROCYTE COUNT", "setting": "72 h, time 3 day", "value": 5.79, "unit": "x10E6/uL"}, {"measurement": "HEMATOCRIT", "setting": "72 h, time 3 day", "value": 37.07, "unit": "%"}, {"measurement": "HEMOGLOBIN", "setting": "72 h, time 3 day", "value": 13.9, "unit": "G/DL"}, {"measurement": "LEUKOCYTE COUNT", "setting": "72 h, time 3 day", "value": 16.2, "unit": "x10E3/uL"}, {"measurement": "LYMPHOCYTE", "setting": "72 h, time 3 day", "value": 85, "unit": "%"}, {"measurement": "MEAN CORPUSCULAR HEMOGLOBIN", "setting": "72 h, time 3 day", "value": 24.03, "unit": "pg"}, {"measurement": "MEAN CORPUSCULAR HEMOGLOBIN CONCENTRATION", "setting": "72 h, time 3 day", "value": 37.5, "unit": "G/DL"}, {"measurement": "MEAN CORPUSCULAR VOLUME", "setting": "72 h, time 3 day", "value": 64.07, "unit": "fL"}, {"measurement": "MONOCYTE", "setting": "72 h, time 3 day", "value": 1.67, "unit": "%"}, {"measurement": "NEUTROPHIL", "setting": "72 h, time 3 day", "value": 12.67, "unit": "%"}, {"measurement": "NUCLEATED RED BLOOD CELLS", "setting": "72 h, time 3 day", "value": "0 /100WBC"}, {"measurement": "PLATELET COUNT", "setting": "72 h, time 3 day", "value": 1342.33, "unit": "x10E3/uL"}, {"measurement": "ALANINE AMINOTRANSFERASE", "setting": "72 h, time 3 day", "value": 47, "unit": "u/L"}, {"measurement": "ALBUMIN", "setting": "72 h, time 3 day", "value": 4.23, "unit": "G/DL"}, {"measurement": "ALKALINE PHOSPHATASE", "setting": "72 h, time 3 day", "value": 337, "unit": "u/L"}, {"measurement": "ASPARTATE AMINOTRANSFERASE", "setting": "72 h, time 3 day", "value": 92, "unit": "u/L"}, {"measurement": "BLOOD UREA NITROGEN", "setting": "72 h, time 3 day", "value": 14.67, "unit": "mg/dL"}, {"measurement": "CARBON DIOXIDE", "setting": "72 h, time 3 day", "value": 28.67, "unit": "mmol/L"}, {"measurement": "CHLORIDE", "setting": "72 h, time 3 day", "value": 102.33, "unit": "MEQ/L"}, {"measurement": "CHOLESTEROL", "setting": "72 h, time 3 day", "value": 91.33, "unit": "mg/dL"}, {"measurement": "CREATINE PHOSPHOKINASE", "setting": "72 h, time 3 day", "value": 270, "unit": "u/L"}, {"measurement": "CREATININE", "setting": "72 h, time 3 day", "value": 0.24, "unit": "mg/dL"}, {"measurement": "GLUCOSE", "setting": "72 h, time 3 day", "value": 149.67, "unit": "mg/dL"}, {"measurement": "LACTATE DEHYDROGENASE", "setting": "72 h, time 3 day", "value": 413.33, "unit": "u/L"}, {"measurement": "LIPASE", "setting": "72 h, time 3 day", "value": 9.67, "unit": "u/L"}, {"measurement": "PHOSPHORUS", "setting": "72 h, time 3 day", "value": 12.53, "unit": "mg/dL"}, {"measurement": "POTASSIUM", "setting": "72 h, time 3 day", "value": 7.01, "unit": "MEQ/L"}, {"measurement": "SODIUM", "setting": "72 h, time 3 day", "value": 146.23, "unit": "MEQ/L"}, {"measurement": "TOTAL BILIRUBIN", "setting": "72 h, time 3 day", "value": 0.2, "unit": "mg/dL"}, {"measurement": "TOTAL PROTEIN", "setting": "72 h, time 3 day", "value": 5.93, "unit": "G/DL"}, {"measurement": "URIC ACID", "setting": "72 h, time 3 day", "value": 1.77, "unit": "mg/dL"}, {"measurement": "ABSOLUTE BASOPHIL", "setting": "120 h, time 5 day", "value": 0, "unit": "CELLS/uL"}, {"measurement": "ABSOLUTE EOSINOPHIL", "setting": "120 h, time 5 day", "value": 0, "unit": "CELLS/uL"}, {"measurement": "ABSOLUTE LYMPHOCYTE", "setting": "120 h, time 5 day", "value": 13314, "unit": "CELLS/uL"}, {"measurement": "ABSOLUTE MONOCYTE", "setting": "120 h, time 5 day", "value": 96.33, "unit": "CELLS/uL"}, {"measurement": "ABSOLUTE SEGMENTED NEUTROPHIL", "setting": "120 h, time 5 day", "value": 1389.67, "unit": "CELLS/uL"}, {"measurement": "BASOPHIL", "setting": "120 h, time 5 day", "value": 0, "unit": "%"}, {"measurement": "EOSINOPHIL", "setting": "120 h, time 5 day", "value": 0, "unit": "%"}, {"measurement": "ERYTHROCYTE COUNT", "setting": "120 h, time 5 day", "value": 5.67, "unit": "x10E6/uL"}, {"measurement": "HEMATOCRIT", "setting": "120 h, time 5 day", "value": 34.73, "unit": "%"}, {"measurement": "HEMOGLOBIN", "setting": "120 h, time 5 day", "value": 13.53, "unit": "G/DL"}, {"measurement": "LEUKOCYTE COUNT", "setting": "120 h, time 5 day", "value": 14.8, "unit": "x10E3/uL"}, {"measurement": "LYMPHOCYTE", "setting": "120 h, time 5 day", "value": 90, "unit": "%"}, {"measurement": "MEAN CORPUSCULAR HEMOGLOBIN", "setting": "120 h, time 5 day", "value": 24, "unit": "pg"}, {"measurement": "MEAN CORPUSCULAR HEMOGLOBIN CONCENTRATION", "setting": "120 h, time 5 day", "value": 39, "unit": "G/DL"}, {"measurement": "MEAN CORPUSCULAR VOLUME", "setting": "120 h, time 5 day", "value": 61.53, "unit": "fL"}, {"measurement": "MONOCYTE", "setting": "120 h, time 5 day", "value": 0.67, "unit": "%"}, {"measurement": "NEUTROPHIL", "setting": "120 h, time 5 day", "value": 9.33, "unit": "%"}, {"measurement": "NUCLEATED RED BLOOD CELLS", "setting": "120 h, time 5 day", "value": "0 /100WBC"}, {"measurement": "PLATELET COUNT", "setting": "120 h, time 5 day", "value": 1300.67, "unit": "x10E3/uL"}, {"measurement": "ALANINE AMINOTRANSFERASE", "setting": "120 h, time 5 day", "value": 41.67, "unit": "u/L"}, {"measurement": "ALBUMIN", "setting": "120 h, time 5 day", "value": 4.13, "unit": "G/DL"}, {"measurement": "ALKALINE PHOSPHATASE", "setting": "120 h, time 5 day", "value": 340, "unit": "u/L"}, {"measurement": "ASPARTATE AMINOTRANSFERASE", "setting": "120 h, time 5 day", "value": 77.67, "unit": "u/L"}, {"measurement": "BLOOD UREA NITROGEN", "setting": "120 h, time 5 day", "value": 15.33, "unit": "mg/dL"}, {"measurement": "CARBON DIOXIDE", "setting": "120 h, time 5 day", "value": 27, "unit": "mmol/L"}, {"measurement": "CHLORIDE", "setting": "120 h, time 5 day", "value": 104, "unit": "MEQ/L"}, {"measurement": "CHOLESTEROL", "setting": "120 h, time 5 day", "value": 78.33, "unit": "mg/dL"}, {"measurement": "CREATINE PHOSPHOKINASE", "setting": "120 h, time 5 day", "value": 235.33, "unit": "u/L"}, {"measurement": "CREATININE", "setting": "120 h, time 5 day", "value": 0.22, "unit": "mg/dL"}, {"measurement": "GLUCOSE", "setting": "120 h, time 5 day", "value": 151, "unit": "mg/dL"}, {"measurement": "LACTATE DEHYDROGENASE", "setting": "120 h, time 5 day", "value": 176, "unit": "u/L"}, {"measurement": "LIPASE", "setting": "120 h, time 5 day", "value": 9.33, "unit": "u/L"}, {"measurement": "PHOSPHORUS", "setting": "120 h, time 5 day", "value": 12.43, "unit": "mg/dL"}, {"measurement": "POTASSIUM", "setting": "120 h, time 5 day", "value": 6.83, "unit": "MEQ/L"}, {"measurement": "SODIUM", "setting": "120 h, time 5 day", "value": 145.3, "unit": "MEQ/L"}, {"measurement": "TOTAL BILIRUBIN", "setting": "120 h, time 5 day", "value": 0.13, "unit": "mg/dL"}, {"measurement": "TOTAL PROTEIN", "setting": "120 h, time 5 day", "value": 5.83, "unit": "G/DL"}, {"measurement": "URIC ACID", "setting": "120 h, time 5 day", "value": 1.57, "unit": "mg/dL"}]}
